Consider 3 molecules from patent publication US9232796B2, “Herbicidal compositions comprising 4-amino-3-chloro-5-fluoro-6-(4-chloro-2-fluoro-3-methoxyphenyl) pyridine-2-carboxylic acid or a derivative thereof and acetyl-CoA carboxylase (ACCase) inhibitors” (DOW AGROSCIENCES LLC, priority 2012, dated 2016).

For assay [1], the system named is SCPJU. The experiment in a line: Example V (second) postemergence foliar-applied ternary mixtures, greenhouse, direct seeded rice weeds. The format is in vivo, Schoenoplectus juncoides (Roxb.) Palla. From the text:
Seeds or nutlets of the desired test plant species were planted in a soil matrix prepared by mixing a sandy loam or loam soil (e.g., 32 percent silt, 23 percent clay, and 45 percent sand, with a pH of about 6.5 and an organic matter content of about 1.9 percent) and calcareous grit in an 80 to 20 ratio. The soil matrix was contained in plastic pots with a volume of 1 quart and a surface area of 83.6 square centimeters (cm^2). When required to ensure good germination and healthy plants, a fungicide treatment and/or other chemical or physical treatment was applied. The plants were grown for 8-22 days in a greenhouse with an approximate 14 hr. photoperiod which was maintained at about 29° C. during the day and 26° C. during the night. Nutrients (Peters Excel® 15-5-15 5-Ca 2-Mg and iron chelate) were applied in the irrigation solution as needed and water was added on a regular basis. Supplemental lighting was provided with overhead metal halide 1000-Watt lamps as necessary. The plants were employed for testing when they reached the first through fourth true leaf stage.
Treatments consisted of the benzyl ester of 4-amino-3-chloro-5-fluoro-6-(4-chloro-2-fluoro-3-methoxy-phenyl)pyridine-2-carboxylic acid (Compound A), formulated as an SC (suspension concentrate), an ACCase inhibitor, and a third herbicidal component, each applied alone and in ternary combination. Forms of compound A were applied on an acid equivalent basis.
The ACCase inhibitor component was applied on an active ingredient basis and included cyhalofop-R-butyl formulated as Clincher® SF, fenoxaprop-p-ethyl formulated as RiceStar® HT, and profoxydim formulated as Aura® 20EC. Other herbicidal components were applied on an active ingredient or acid equivalent basis depending on the compound and included penoxsulam formulated as Grasp® SC, bentazon sodium formulated as Basagran®, triclopyr […] (TEA) salt formulated as Grandstand® R, bispyribac sodium formulated as Regiment® 80WP, imazamox ammonium formulated as Beyond®, benzobicyclon, quinclorac formulated as Facet® 75DF, glyphosate dimethylammonium (DMA) salt formulated as Durango® DMA, glufosinate ammonium formulated as Ignite® 280, fentrazamide formulated as an emulsifiable concentrate (EC), propyrisulfuron formulated as Zeta One®, and indanofan (technical grade material).
(§1) Treatment requirements were calculated based upon the rates being tested, the concentration of active ingredient or acid equivalent in the formulation, and a 12 mL application volume at a rate of 187 L/ha.
For treatments comprised of formulated compounds, measured amounts of compounds were placed individually in 25 mL glass vials and diluted in a volume of 1.25% (v/v) Agri-Dex® crop oil concentrate to obtain 12× stock solutions. […]

Assay [2] deals with LEFCH. The assay is described as follows: Example I postemergence foliar-applied, greenhouse, direct seeded rice weeds. It is filed as in vivo, Leptochloa chinensis (L.) Nees.
From the text: Seeds or nutlets of the desired test plant species were planted in a soil matrix prepared by mixing a loam or sandy loam soil (e.g., 28.6 percent silt, 18.8 percent clay, and 52.6 percent sand, with a pH of about 5.8 and an organic matter content of about 1.8 percent) and calcareous grit in an 80 to 20 ratio. The soil matrix was contained in plastic pots with a volume of 1 quart and a surface area of 83.6 square centimeters (cm^2). When required to ensure good germination and healthy plants, a fungicide treatment and/or other chemical or physical treatment was applied. The plants were grown for 8-22 days in a greenhouse with an approximate 14 hr. photoperiod which was maintained at about 29° C. during the day and 26° C. during the night. Nutrients (Peters Excel® 15-5-15 5-Ca 2-Mg and iron chelate) were applied in the irrigation solution as needed and water was added on a regular basis. Supplemental lighting was provided with overhead metal halide 1000-Watt lamps as necessary. The plants were employed for testing when they reached the first through fourth true leaf stage.
Treatments consisted of the acid or esters of 4-amino-3-chloro-5-fluoro-6-(4-chloro-2-fluoro-3-methoxy-phenyl)pyridine-2-carboxylic acid (Compound A), each formulated as an SC (suspension concentrate), and various herbicidal components alone and in combination.
Other herbicidal components were applied on an acid equivalent (ae) or active ingredient (ai) basis and included acetyl coA carboxylase (ACCase)-inhibiting herbicides (cyclohexanedione and aryloxyphenoxypropionate chemical classes) cyhalofop-butyl formulated as Clincher® SF (285 gr ai/L EC), diclofop-methyl formulated as Hoelon® 3EC, fenoxaprop-p-ethyl+isoxadifen-ethyl formulated as RiceStar® HT (0.58 lb./gal EC), fenoxaprop-p-ethyl+mefenpyr diethyl formulated as Puma® IEC, metamifop formulated as Metamifop EC, haloxyfop-methyl formulated as Gallant Super®, fluazifop-p-butyl formulated as Fusilade® DX, quizalofop-p-ethyl formulated as Assure® II, profoxydim formulated as Aura® 20EC, clethodim applied as Intensity®, sethoxydim formulated as Poast®, and tralkoxydim formulated as Achieve®.
as §1
For treatments comprised of formulated compounds, measured amounts of compounds were placed individually in 25 mL glass vials and diluted in a volume of 1.25% (v/v) Agri-Dex® crop oil concentrated to obtain 12× stock solutions. […] Application solutions were prepared by adding an appropriate amount of each stock solution (e.g., 1 mL) and diluted to the appropriate final concentrations with the addition of 10 mL of an aqueous mixture of 1.25% (v/v) crop oil concentrate so that the final spray solutions contained 1.25+/−0.05% (v/v) crop oil concentrate.
All stock solutions and applications solutions were visually inspected for compound compatibility prior to application. Spray solutions were applied to the plant material with an overhead Mandel track sprayer equipped with a 8002E nozzles calibrated to deliver 187 L/ha over an application area of 0.503 m^2 at a spray height of 18 to 20 inches (46 to 50 cm) above average plant canopy height. Control plants were sprayed in the same manner with the solvent blank.
The treated plants and control plants were placed in a greenhouse as described above and watered by sub-irrigation to prevent wash-off of the test compounds. After approximately 3 weeks, the condition of the test plants as compared with that of the untreated plants was determined visually and scored on a scale of 0 to 100 percent where 0 corresponds to no injury or growth inhibition and 100 corresponds to complete kill. […]

Structures are written as SMILES.

`CCCCOC(=O)[C@@H](C)Oc1ccc(Oc2ccc(C#N)cc2F)cc1` [Cyhalofop-butyl, butyl(2R)-2-[4-(4-cyano-2-fluorophenoxy)phenoxy]propanoate, reference compound]: the “Visual Weed Control (%) - 21 DAA SCPJU Obs” value in assay [1] (35 gai/ha) is on record as 0%.

`COc1c(Cl)ccc(-c2nc(C(=O)OCc3ccccc3)c(Cl)c(N)c2F)c1F` [Compound A Benzyl Ester, benzyl ester of 4-amino-3-chloro-5-fluoro-6-(4-chloro-2-fluoro-3-methoxy-phenyl)pyridine-2-carboxylic acid]: the entries for the “Visual Weed Control (%) - 20 DAA LEFCH Obs” value in assay [2] (4.38 gae/ha), in assay [2] (8.75 gae/ha) and in assay [2] (17.5 gae/ha) were 0%, 10% and 25%, respectively. In addition, the entries for the “Visual Weed Control (%) - 22 DAA LEFCH Obs” value in assay [2] (8 gae/ha) and in assay [2] (16 gae/ha) were 15% and 50%, respectively. The “Visual Weed Control (%) - 21 DAA SCPJU Obs” value in assay [1] (2.19 gae/ha) came to 65%; in assay [1] (4.38 gae/ha) it was 96%.

Turning to `CCC/C(=N\OCC(C)Oc1ccc(Cl)cc1)C1=C(O)CC(C2CCCSC2)CC1=O` (stereo not shown) [Profoxydim, 2-[1-[[2-(4-chlorophenoxy)propoxy]imino]butyl]-3-hydroxy-5-(tetrahydro-2H-thiopyran-3-yl)-2-cyclohexen-1-one, reference compound], the “Visual Weed Control (%) - 20 DAA LEFCH Obs” value in assay [2] (12.5 gai/ha) is listed as 0%; in assay [2] (25 gai/ha), 40%.
